Counter-ions that a name gives are not always drawn.
Assays:
[1] = tested on: Monosodium Iodoacetate-Induced Osteoarthritis in Rat Model of Joint Cartilage Damage; assay: Monosodium iodoacetate-induced osteoarthritis in rat (MIA Rat), loss of hind limb joint function; type: in vivo; conditions: male Wistar rats, MIA 1 mg/joint, 10 mg/kg/day subcutaneously via osmotic pump
Excerpt: Monosodium Iodoacetate-Induced Osteoarthritis in Rat Model of Joint Cartilage Damage (“MIA Rat”):
One end result of the induction of osteoarthritis in this model, as determined by histologic analysis, is the development of an osteoarthritic condition within the affected joint, as characterized by the loss of Toluidine blue staining and formation of osteophytes. Associated with the histologic changes is a concentration-dependent degradation of joint cartilage, as evidenced by affects on hind-paw weight distribution of the limb containing the affected joint, the presence of increased amounts of proteoglycan or hydroxyproline in the joint upon biochemical analysis, or histopathological analysis of the osteoarthritic lesions.
The invention compounds typically are not effective for relieving joint pain when administered in an acute model, such as the instant MIA Rat model, which has a duration of just 14 or 28 days.
Generally, In the MIA Rat model on Day 0, the hind-paw weight differential between the right arthritic joint and the left healthy joint of male Wistar rats (150 g) are determined with an incapacitance tester, model 2KG (Linton Instrumentation, Norfolk, United Kingdom). The incapacitance tester has a chamber on top with an outwardly sloping front wall that supports a rat's front limbs, and two weight sensing pads, one for each hind paw, that facilitates this determination. Then the rats are anesthetized with isofluorine, and the right, hind leg knee joint is injected with 1.0 mg of mono-iodoacetate (“MIA”) through the infrapatellar ligament. Injection of MIA into the joint results in the inhibition of glycolysis and eventual death of surrounding chondrocytes. The rats are further administered either an invention compound or vehicle (in the instant case, water) daily for 14 days or 28 days.
The invention compound is typically administered at a dose of 30 mg of per kilogram of rat per day (30 mg/kg/day), but may be administered at other doses such as, for example, 10 mg/kg/day, 60 mg/kg/day, 90-mg/kg/day, or 100 mg/kg/day according to the requirements of the invention compound being studied. It is well within the level of ordinary skill in the pharmaceutical arts to determine a proper dosage of an invention compound in this model.
Administration of an invention compound in this model is optionally by oral administration or by intravenous administration via an osmotic pump. After 7 and 14 days for a two week study, or 7, 14, and 28 days for a four week study, the hind-paw weight distribution is again determined. Typically, the animals administered vehicle alone place greater weight on their unaffected left hind paw than on their right hind paw, while animals administered an invention compound show a more normal (i.e., more like a healthy animal) weight distribution between their hind paws. This change in weight distribution was proportional to the degree of joint cartilage damage. Percent inhibition of a change in hind paw joint function is calculated as the percent change in hind-paw weight distribution for treated animals versus control animals. For example, for a two week study, [formula] wherein: ΔWC is the hind-paw weight differential between the healthy left limb and the arthritic limb of the control animal administered vehicle alone, as measured on Day 14; and • ΔWG is the hind-paw weight differential between the healthy left limb and the arthritic limb of the animal administered an invention compound as measured on Day 14.
Administration via osmotic pump is preferable for screening compounds. In a particular experiment, monosodium iodoacetate (“MIA”) (1 mg/joint) was injected through the infrapatellar ligament of the right knee of anesthetized male, Wistar rats. The contralateral control knee was injected with 50 μL of physiologic saline. […]

[2] = biological target: alpha-2-delta receptor 2 (UniProt A0A8W4FF87); assay: [3H]Gabapentin A2DR2 binding assay; parameters: species or system pig; conditions: Biological Method 4; read-out: A2DR2 IC50, displacement of [3H]-gabapentin
Excerpt: (§1) [^3H]Gabapentin A2DR1 and A2DR2 Binding Assays (“A2DR1” and “A2DR2”, Respectively)
(§2) HEK 293 recombinant cells expressing A2DR1 or A2DR2 protein are harvested and washed in phosphate buffered saline (“PBS”). The cells are centrifuged and resuspended in tris(hydroxymethyl)aminomethane-ethylenediaminetetraacetic acid (“Tris-EDTA” or “TE”) buffer containing Roche Complete Protease Inhibitor Cocktail. The cells are homogenized, centrifuged at 3000×g, and the supernatant centrifuged again at 50,000×g. The resulting pellet is resuspended and homogenized in TE. Following determination of A2DR1 or A2DR2 protein concentration, aliquots are stored at −70° C. until the day of testing (membrane preparation may be used for at least 6 months).
(§3) In one version, the binding assay is set up in a 96-well format using deep-well polypropylene plates. […] Non-specific binding for each plate is determined by the addition of 10 μM of pregabalin instead of test compound in a few of the 96 wells. […] The mats are placed into plastic pouches, scintillation cocktail is added, the pouches are sealed, and radioactivity for each sample is counted.
Specific binding values for each concentration are transformed and then analyzed by a 4-parameter nonlinear regression equation provided by Prism graphics software by Graph Pad to determine IC50 values by conventional means. […]

[3] = biological target: alpha-2-delta receptor 1 (Sus scrofa, UniProt A0A287BIN3); assay: [3H]Gabapentin A2DR1 binding assay; parameters: species or system pig; conditions: Biological Method 4; read-out: A2DR1 IC50, displacement of [3H]-gabapentin
Excerpt: as §1, §2, §3
(§4) Specific binding values for each concentration are transformed and then analyzed by a 4-parameter nonlinear regression equation provided by Prism graphics software by Graph Pad to determine IC50 values by conventional means.
Displacement of [3H]-gabapentin from an alpha-2-delta receptor-1 or an alpha-2-delta receptor-2 by certain invention compounds is evidenced below in Table 2. In Table 2, the displacement was determined according to one of the above Biological Methods 4 or 6, and reported as an IC50 in micromolar concentration of invention compound in the columns labeled “A2DR1 IC50 (μM),” “A2DR2 IC50 […],” and “GABAPAA IC50 (μM),” respectively, for a reference compound, racemic octahydroisoindole-2-carboxylic acid (“OHIII2CA”) and certain invention compounds, which are referenced by Compound Example number in the column labeled “Compound Example No.”.

[4] = biological target: alpha-2-delta receptors, membrane from pig cortex (Sus scrofa, UniProt O77773); assay: [3H]Gabapentin A2DR binding assay (GABAPAA / GABAP); conditions: Biological Method 6, pig cortex membrane; read-out: GABAPAA IC50, displacement of [3H]-gabapentin
Description: In one version, the binding assay is set up in a 96-well format using deep-well polypropylene plates. In a total volume of 500 μL, the following additions are made: 250 μL buffer [10 mM N-2-hydroxyethylpiperazine-N′-2-ethanesulfonic acid (“HEPES”), pH 7.4], 25 μL [3H]gabapentin (10 nM final concentration), 200 μL thawed tissue membrane preparation from Step (1) (˜40 μg protein), and 25 μL of test compound at 7 test dilutions (for example, 0.001, 0.01, 0.03, 0.1, 0.3, 1.0, and 10 μM concentrations). Non-specific binding for each plate is determined by the addition of 10 μM of pregabalin instead of test compound in a few of the 96 wells. Following incubation for 45 minutes at 21° C., the contents of the wells are filtered under vacuum onto glass filter/B (“GF/B”) filter mats and then washed 4×1 mL with chilled 50 mM tris(hydroxymethyl)aminomethane (“Tris”) HCl, pH 6.9. The mats are placed into plastic pouches, scintillation cocktail is added, the pouches are sealed, and radioactivity for each sample is counted.
as §4
[^3H]Gabapentin A2DR Binding Assay (“GABAPAA” or “GABAP”) […]

[5] = biological target: leucine transport system (Cricetulus griseus, UniProt G3GRU9); assay: Leucine transport system binding assay (LTSBA), [3H]leucine uptake in CHO K1 cells; type: cell-based; conditions: conclusion from Table 3
Description: Leucine Transport System Binding Assay (“LTSBA”) The sodium-containing buffer for transport assay was phosphate buffered saline (“PBS”) consisting of 137 mM NaCl, 2.7 mM KCl, 10.6 mM Na2HPO4, and 1.5 mM KH2PO4. The sodium-free buffer had equimolar amounts of choline chloride and choline phosphate in place of NaCl and […], respectively. This buffer is referred to as PBC. Prior to use, both PBS and PBC buffers (pH 7.4) were supplemented with 5.6 mM D-glucose, 0.49 mM MgCl2, and 0.9 mM CaCl2 (GMC). For cultured monolayer cells (in general, CHO K1 cells), the cluster tray transport assay was used as described previously (Su et al, J. Neurochem., 1995; 64:2125-2131, and references therein). […] The initial transport rates were determined by measuring uptake of tracer [3H] […] Secondary analysis of the initial velocity kinetic curves were determined by non linear regression analysis, using the equation: log V=log {[Vmax.S/(Km+S)]+P.[S]} where V, S, Vmax, and Km have their conventional meanings, and P represents the first order rate constant describing the nonsaturable uptake. An IC50 was determined as percentage inhibition of saturable leucine uptake. […] They were calculated by subtracting the corresponding substrate uptake rates in the presence of 10 mM excess unlabeled leucine from the total uptake rates. […] The efflux was calculated as percentage of the intracellular labeled substrate at zero time. […]

Sequence of leucine transport system (G3GRU9 entry or part of it): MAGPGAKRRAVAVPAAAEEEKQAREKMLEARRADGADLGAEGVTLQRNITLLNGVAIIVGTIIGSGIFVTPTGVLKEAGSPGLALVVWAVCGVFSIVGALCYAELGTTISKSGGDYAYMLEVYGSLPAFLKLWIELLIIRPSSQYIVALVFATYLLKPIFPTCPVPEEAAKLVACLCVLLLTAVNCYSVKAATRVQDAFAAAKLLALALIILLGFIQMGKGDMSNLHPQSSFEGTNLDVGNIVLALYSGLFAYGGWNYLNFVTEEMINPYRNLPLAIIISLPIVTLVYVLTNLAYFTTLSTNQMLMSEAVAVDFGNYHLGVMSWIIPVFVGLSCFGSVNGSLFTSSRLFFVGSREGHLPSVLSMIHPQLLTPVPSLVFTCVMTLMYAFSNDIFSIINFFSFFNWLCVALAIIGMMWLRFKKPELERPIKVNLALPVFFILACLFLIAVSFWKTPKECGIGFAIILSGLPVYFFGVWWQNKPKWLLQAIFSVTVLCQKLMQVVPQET
Sequence of leucine transport system (A0A9J7CH39 entry or part of it, further chain): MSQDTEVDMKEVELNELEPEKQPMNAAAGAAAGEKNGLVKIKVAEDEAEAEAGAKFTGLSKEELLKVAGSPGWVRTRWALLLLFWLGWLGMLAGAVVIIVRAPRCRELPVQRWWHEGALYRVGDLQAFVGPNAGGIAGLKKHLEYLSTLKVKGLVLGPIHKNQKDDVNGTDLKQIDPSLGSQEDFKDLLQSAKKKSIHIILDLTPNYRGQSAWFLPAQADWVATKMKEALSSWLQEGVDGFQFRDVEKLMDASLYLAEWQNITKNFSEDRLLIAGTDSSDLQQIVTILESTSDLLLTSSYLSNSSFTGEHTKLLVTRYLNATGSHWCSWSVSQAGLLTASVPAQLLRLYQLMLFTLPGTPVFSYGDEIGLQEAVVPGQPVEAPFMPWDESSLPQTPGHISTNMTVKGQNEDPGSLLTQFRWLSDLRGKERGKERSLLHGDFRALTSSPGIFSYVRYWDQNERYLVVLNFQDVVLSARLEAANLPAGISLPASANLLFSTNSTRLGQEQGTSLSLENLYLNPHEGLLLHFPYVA
Sequence of alpha-2-delta receptors, membrane from pig cortex (O77773 25-1091): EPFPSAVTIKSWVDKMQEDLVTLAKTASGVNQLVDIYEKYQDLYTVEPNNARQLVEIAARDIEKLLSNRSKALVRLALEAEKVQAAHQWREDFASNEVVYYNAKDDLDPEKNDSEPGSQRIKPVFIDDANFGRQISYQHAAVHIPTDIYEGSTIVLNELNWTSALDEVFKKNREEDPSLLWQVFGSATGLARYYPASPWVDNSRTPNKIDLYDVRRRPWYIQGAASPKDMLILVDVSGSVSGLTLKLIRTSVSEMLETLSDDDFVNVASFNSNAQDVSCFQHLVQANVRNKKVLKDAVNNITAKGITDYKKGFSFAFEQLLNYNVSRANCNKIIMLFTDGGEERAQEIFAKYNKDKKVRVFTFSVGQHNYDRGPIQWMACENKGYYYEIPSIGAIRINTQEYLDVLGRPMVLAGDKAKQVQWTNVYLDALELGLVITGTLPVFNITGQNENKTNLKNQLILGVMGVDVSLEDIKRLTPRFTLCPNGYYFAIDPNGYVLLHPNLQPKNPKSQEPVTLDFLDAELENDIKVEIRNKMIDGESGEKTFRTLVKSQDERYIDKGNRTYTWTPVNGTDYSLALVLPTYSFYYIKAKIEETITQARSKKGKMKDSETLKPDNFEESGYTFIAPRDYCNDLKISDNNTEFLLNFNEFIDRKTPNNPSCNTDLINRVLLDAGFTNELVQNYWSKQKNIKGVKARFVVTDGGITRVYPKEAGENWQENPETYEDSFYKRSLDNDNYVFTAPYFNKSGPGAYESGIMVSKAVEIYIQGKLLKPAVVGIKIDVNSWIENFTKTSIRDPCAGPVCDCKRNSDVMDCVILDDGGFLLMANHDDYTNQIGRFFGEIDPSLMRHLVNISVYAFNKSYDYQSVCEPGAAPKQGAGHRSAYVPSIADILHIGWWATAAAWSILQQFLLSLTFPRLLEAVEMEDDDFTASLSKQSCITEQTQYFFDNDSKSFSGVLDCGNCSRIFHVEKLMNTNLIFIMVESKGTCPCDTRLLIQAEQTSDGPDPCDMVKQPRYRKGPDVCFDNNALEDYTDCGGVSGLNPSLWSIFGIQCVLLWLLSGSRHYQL

melting point | SMILES | % I @ 10 mg/kg/day (%) (± SEM): inhibition of loss of hind limb joint function in MIA at Day 14 [1] | other results
235 to 241 °C (dec.) | COC1CC2CNC(C(=O)O)C2CC1OC (centres unmarked) | – | –
200 to 205 °C (dec.) | O=C(O)C1NCC2C1CCC2(F)F (centres unmarked) | – | –
188 to 190 °C | O=C(O)[C@@H]1NC[C@@H]2[C@H]1[C@H]1CC[C@@H]2O1 (racemic) | – | –
250 to 255 °C | O=C(O)[C@@]12CCCN1C[C@H]1CCCC[C@H]12 (racemic) (as salt: hydrochloride) | – | –
– | CC1(C)N[C@H](C(=O)O)[C@@H]2CCCC[C@H]21 (racemic) [Example B5] | 32% | IC50 [2]: ≥ 10 µM; IC50 [3]: ≥ 10 µM
– | O=C(O)N1CC2CCCCC2C1 (racemic) [OHII2CA, racemic octahydroisoindole-2-carboxylic acid] | – | IC50 [4]: 30 nM
– | CN1CC2CCCCC2C1(C)C(=O)O (centres unmarked) [Example B1] | 32% | –
– | C[C@]1(C(=O)O)NC[C@H]2CCCC[C@H]21 [Example B2] | −5% | IC50 [2]: ≥ 10 µM; IC50 [3]: ≥ 10 µM
– | CC12CCCCC1CNC2C(=O)O (centres unmarked) [Example B4] | 13% | –
– | O=C(O)[C@@]12CCCN1C[C@H]1CCCC[C@H]12 [Example M1] | – | IC50 [3]: ≥ 10 µM
– | CN1C[C@H]2C3CCC(CC3)[C@H]2[C@@H]1C(=O)O [Example R2] | −20% | –
– | O=C(O)C1NCC2C3CCC(CC3)C12 (centres unmarked) [Example R3] | 20% | –
– | Cl.O=C(O)N1CC2CCCCC2C1 (centres unmarked) [OHII2CA HCl, octahydroisoindole-2-carboxylic acid hydrochloride] | – | binding to the leucine transport system (in words) [5]: weakly bind or do not bind
